One experiment relates to KG-1. As to the kind of experiment: Cell growth test (Cell Titer Blue) KG-1. Format: cell-based. The following applies: Homo sapiens, 72 h, KG-1, Acute myeloid leukemia, 3 days. Here is the method:
(§1) Moreover, the compound of Example 14 was subjected to a cell growth test using various types of cell lines.
(§2) All cell lines other than the below-noticed cells were each seeded in a well plate, in which an RPMI-1640 medium supplemented with penicillin/streptomycin and FBS with a final concentration of 10% was placed. The human prostate cancer cell line VCaP (ATCC) was seeded in a well plate, in which DMEM medium supplemented with penicillin/streptomycin and FBS with a final concentration of 10% was placed. […] Thereafter, using Enspire Multimode Plate Reader (PerkinElmer), the amount of fluorescence at an excitation wavelength of 531 nm and a fluorescence wavelength of 615 nm was measured. Since the amount of fluorescence is in proportion to the concentration of a florescent product resorufin that is converted from resazurin as a redox dye by living cells, the amount of fluorescence was used as an indicator of the number of living cells. The growth inhibition percentage of the test compound in each concentration was calculated according to the following equation. Growth inhibition percentage (%)=(amount of fluorescence in test compound−added well)/(amount of fluorescence in DMSO−added well)×100 […]

For another experiment, the system named is CCRF-CEM. The experiment is described as follows: Cell growth test (Cell Titer Blue) CCRF-CEM. The experiment is classed as cell-based. Conditions: Homo sapiens, 72 h, Acute lymphoblastic leukemia, 3 days. Here is the method:
as §1, §2
(Resazurin is reduced to fluorescent resorufin, in cell work by metabolically active cells.)

The next experiment relates to MOLT-4. The experiment is described as follows: Cell growth test (Cell Titer Blue) MOLT-4. The experiment is classed as cell-based. The following applies: Homo sapiens, 72 h, MOLT-4, Acute lymphoblastic leukemia, 3 days. The method, then:
as §1, §2

The next experiment has as its system SK-HEP-1. As to the kind of experiment: Cell growth test (Cell Titer Blue) SK-HEP-1. Format: cell-based. The following applies: Homo sapiens, SK-HEP1, 72 h, SK-HEP-1, Liver cancer, 3 days. The method, then:
as §1, §2

Another experiment concerns HOP-62. The experiment is described as follows: Cell growth test (Cell Titer Blue) HOP-62. The experiment is classed as cell-based. Conditions: Homo sapiens, 72 h, HOP-62, Lung cancer, 3 days. The method, then:
as §1, §2

A further experiment relates to NCI-H69. The experiment is described as follows: Cell growth test (Cell Titer Blue) NCI-H69. Format: cell-based. The following applies: Homo sapiens, 72 h, NCI-H69, Lung cancer, 3 days. Here is the method: as §1, §2
In another experiment the test system is NCI-H1299. The experiment is described as follows: Cell growth test (Cell Titer Blue) NCI-H1299. The experiment is classed as cell-based. Conditions: Homo sapiens, 72 h, NCI-H1299, Lung cancer, 3 days. Here is the method:
as §1, §2

The test system of another experiment is U-937. The experiment is described as follows: Cell growth test (Cell Titer Blue) U-937. The following applies: Homo sapiens, 72 h, U-937, Lymphoma, 3 days. The experiment is classed as cell-based. Here is the method:
as §1, §2

In experiment [1] the test system is human lymphoma cell line OCI-Ly7. The experiment is described as follows: Cell growth test (Cell Titer Blue) OCI-LY7. Format: cell-based. The following applies: 72 h, 3 days. Here is the method: as §1, §2
A further experiment deals with SU-DHL-1. As to the kind of experiment: Cell growth test (Cell Titer Blue) SU-DHL-1. Format: cell-based. Conditions: Homo sapiens, 72 h, SU-DHL-1, Lymphoma, 3 days. Here is the method: as §1, §2
The subject of the next experiment is MDA-MB-453. The experiment is described as follows: Cell growth test (Cell Titer Blue) MDA-MB-453. Format: cell-based. Conditions: Homo sapiens, 72 h, MDA-MB-453, Breast cancer, 3 days. Here is the method:
as §1, §2

A further experiment relates to MCF-7. As to the kind of experiment: Cell growth test (Cell Titer Blue) MCF-7. Format: cell-based. Conditions: Homo sapiens, MCF7, 72 h, MCF-7, Breast cancer, 3 days. The method, then: as §1, §2
Another experiment has as its system MM.1S. As to the kind of experiment: Cell growth test (Cell Titer Blue) MM.1S. Format: cell-based. Conditions: Homo sapiens, MM1.S, 72 h, Myeloma, 3 days. Here is the method: as §1, §2
A further experiment relates to A2780. The experiment is described as follows: Cell growth test (Cell Titer Blue) A2780. The experiment is classed as cell-based. Conditions: Homo sapiens, 72 h, A2780, Ovarian cancer, 3 days. Here is the method:
as §1, §2

The subject of a further experiment is BxPC-3. The experiment is described as follows: Cell growth test (Cell Titer Blue) BxPC-3. Conditions: Homo sapiens, 72 h, BxPC-3, Pancreatic cancer, 3 days. Format: cell-based. Here is the method: as §1, §2
A further experiment deals with PC-3. The experiment is described as follows: Cell growth test (Cell Titer Blue) PC-3. The experiment is classed as cell-based. Conditions: Homo sapiens, 72 h, PC-3, Prostate cancer, 3 days. Here is the method: as §1, §2
Another experiment relates to DU-145. As to the kind of experiment: Cell growth test (Cell Titer Blue) DU-145. Format: cell-based. Conditions: Homo sapiens, 72 h, DU-145, Prostate cancer, 3 days. The method, then: as §1, §2
The next experiment deals with Saos-2. As to the kind of experiment: Cell growth test (Cell Titer Blue) Saos-2. Format: cell-based. Conditions: Homo sapiens, 72 h, Saos-2, Sarcoma, 3 days. Here is the method: as §1, §2
The next experiment deals with c-Myc protein. As to the kind of experiment: Expression of c-Myc protein in Ty-82 cells, Western blotting. Conditions: 100 nmol/L, 24 hours. Format: cell-based, human. Here is the method: It has been known that the antitumor action of a bromodomain inhibitor is associated with a c-Myc protein. Please refer to, for example, Non-Patent Document 3: Delmore J E et al., Cell, Vol. 146, pp. 904 to 917, 2011. With reference to the method described in Non-Patent Document 3, the ability of the compound of the present example to inhibit the expression of a c-Myc protein in cancer cells was evaluated according to Western blotting.
The human undifferentiated thymoma cell line Ty-82 (JCRB) used in the evaluation was seeded in a 6-well plate, in which an RPMI-1640 medium supplemented with penicillin/streptomycin and FBS with a final concentration of 10% was placed. A medium containing a test compound serially diluted with dimethyl sulfoxide (DMSO), or DMSO, was added to each well of the 6-well plate in which the cells had been seeded, and the obtained mixture was then cultured under conditions of 37° C. and 5% CO2 for 24 hours. Thereafter, the cells were recovered, and were then washed with PBS. After that, Lysis Buffer (10-fold diluted Cell Lysis Buffer (10×) (CST Japan), to which Halt Protease and Phosphatase Inhibitor Cocktail (Thermofisher Scientific) were added) was added to the resulting cells. The above-described cell suspension was subjected to an ultrasonic treatment to disintegrate the cells, and was then centrifuged to recover a supernatant. Sample buffer was added thereto, and the obtained mixture was then heated at 95° C. for 5 minutes.
A sample prepared from the above-described supernatant was loaded at a protein mass of 10 μg/lane on XV PANTERA GEL 7.5%-15% (D.R.C), and was then subjected to electrophoresis. The electrophoresed protein was transcribed on a transcription membrane, and was then inoculated with Anti-Myc antibody (CST, Catalog No. 9402) and then with IRDye® 680LT Donkey anti-Rabbit IgG (H+L) (LI-COR). Using Odessey (LI-COR), the fluorescence intensity at an excitation wavelength of 700 nm was measured, and the expression level of the c-Myc protein was then quantified.
A general note: In western blotting, separated proteins are transferred to a membrane and probed.

One may read the GI50 as the concentration that inhibits growth by half. A low value points to greater sensitivity of the cells.

For `CCn1c(=O)cc(C2CCN(C)CC2)c2cc(C(=O)N(C)c3ccc(C)cc3)ccc21` [Example 14, 1-Ethyl-N-methyl-N-(4-methylphenyl)-4-(1-methylpiperidin-4-yl)-2-oxo-1,2-dihydroquinoline-6-carboxamide], the GI50 in the experiment with KG-1 amounted to 57 nM; in the experiment on CCRF-CEM, 65 nM; with MOLT-4, 57 nM; in the experiment on SK-HEP-1 it was 2500 nM; in the experiment with HOP-62 it was 143 nM; in the experiment on NCI-H69, 975 nM. In addition, the GI50 was 422 nM with NCI-H1299; 286 nM in the experiment on U-937; 274 nM in [1]; 1260 nM with SU-DHL-1; 115 nM in the experiment with MDA-MB-453; 689 nM in the experiment on MCF-7. The GI50 is 84 nM in the experiment on MM.1S; 582 nM with A2780; 2550 nM with BxPC-3; 175 nM with PC-3; 1430 nM with DU-145; 2620 nM in the experiment with Saos-2. Besides, in the experiment with c-Myc protein, the “expression level of c-Myc protein” value is reported as “significantly reduced”.

In the case of `CCn1c(=O)cc(C2CCN(C)CC2)c2cc(C(=O)N(C)c3ccc4c(c3)CCC4)ccc21` [Example 17, N-(2,3-dihydro-1H-inden-5-yl)-1-ethyl-N-methyl-4-(1-methylpiperidin-4-yl)-2-oxo-1,2-dihydroquinoline-6-carboxamide], the “expression level of c-Myc protein” value with c-Myc protein was “significantly reduced”.

For `CCn1c(=O)cc(N2CCOCC2)c2cc(-n3c(-c4ccc(Cl)cc4)c[nH]c3=O)ccc21` [Example 245, 6-(5-(4-chlorophenyl)-2-oxo-2,3-dihydro-1H-imidazol-1-yl)-1-ethyl-4-(morpholin-4-yl)quinolin-2(1H)-one], the “expression level of c-Myc protein” value in the experiment on c-Myc protein is given as “significantly reduced”.

The record behind these values is patent publication US10987349B2, “Antitumor agent and bromodomain inhibitor” (FUJIFILM Corporation, priority 2016, dated 2021).
